Entries after “also recorded” stand apart in the source; their conditions may differ.
Assays:
PPARα = biological target: T1, PPARα (Mus musculus, UniProt P23204); experiment: Cotransfection assay, PPRE3-TK-LUC reporter with CMX-PPARα; type: cell-based; details: CV-1 cells; for rank order of efficacy of activation, PPARα: FIG. 4, 5 μM Wy 14,643, 30 μM linoleic acid, 30 μM LY-171883
T1 sequence (P23204 1-468): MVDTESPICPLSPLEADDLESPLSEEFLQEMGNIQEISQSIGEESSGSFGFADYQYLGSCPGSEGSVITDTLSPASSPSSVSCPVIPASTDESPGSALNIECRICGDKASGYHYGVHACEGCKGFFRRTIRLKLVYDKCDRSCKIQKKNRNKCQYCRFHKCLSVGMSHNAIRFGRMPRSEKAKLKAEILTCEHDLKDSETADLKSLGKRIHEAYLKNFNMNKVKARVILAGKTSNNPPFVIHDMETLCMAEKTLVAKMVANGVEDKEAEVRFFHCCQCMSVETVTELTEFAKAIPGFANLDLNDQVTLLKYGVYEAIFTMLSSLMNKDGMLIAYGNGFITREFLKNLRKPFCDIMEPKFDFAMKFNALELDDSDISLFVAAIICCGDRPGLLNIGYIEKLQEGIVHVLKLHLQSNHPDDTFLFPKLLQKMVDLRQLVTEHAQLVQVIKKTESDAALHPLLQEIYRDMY
Source text: (§1) The mammalian expression vectors pCMX-PPARα, pCMX-PPARγ and pCMX-PPARδ were constructed by inserting the cDNA inserts of PPARα, PPARγ, and PPARδ into pCMX as previously described by Umesono et al., in Cell 65:1255-1266 (1991)). Construction of the reporter PPRE3 -TK-LUC has also been previously described by Kliewer et al., (1992) supra. Cotransfection assays in CV-1 cells were done in 48 well plates using N-[1-(2,3-dioleoyloxy)-propyl[N,N,N-trimethylammonium methyl sulfate (DOTAP) according to the manufacturer's instructions (Boehringer Mannheim). Transfections contained […] of receptor expression plasmid vector, 20 ng of the reporter PPRE3 -TK-LUC, 60 ng of pCMX-βGAL (β-galactosidase) as an internal control, and 210 ng of carrier plasmid pGEM. Cells were incubated in the presence of DOTAP for 8 hours, washed, and incubated in the presence of peroxisome proliferators or fatty acids for 36 hours. Cell extracts were prepared and assayed for luciferase and β-galactosidase activity as previously described (Umesono, supra). All experimental points were done in triplicate.

PPARγ = biological target: T2, PPARγ (Mus musculus, UniProt P37238); experiment: Cotransfection assay, PPRE3-TK-LUC reporter with CMX-PPARγ; type: cell-based; details: CV-1 cells; for activation of PPARγ (reporter expression), in words: 5 μM Wy 14,643, 30 μM linoleic acid or 30 μM LY-171883; for rank order of efficacy of activation, PPARγ: FIG. 4, 5 μM Wy 14,643, 30 μM linoleic acid, 30 μM LY-171883
T2 sequence (P37238 31-475 N383S): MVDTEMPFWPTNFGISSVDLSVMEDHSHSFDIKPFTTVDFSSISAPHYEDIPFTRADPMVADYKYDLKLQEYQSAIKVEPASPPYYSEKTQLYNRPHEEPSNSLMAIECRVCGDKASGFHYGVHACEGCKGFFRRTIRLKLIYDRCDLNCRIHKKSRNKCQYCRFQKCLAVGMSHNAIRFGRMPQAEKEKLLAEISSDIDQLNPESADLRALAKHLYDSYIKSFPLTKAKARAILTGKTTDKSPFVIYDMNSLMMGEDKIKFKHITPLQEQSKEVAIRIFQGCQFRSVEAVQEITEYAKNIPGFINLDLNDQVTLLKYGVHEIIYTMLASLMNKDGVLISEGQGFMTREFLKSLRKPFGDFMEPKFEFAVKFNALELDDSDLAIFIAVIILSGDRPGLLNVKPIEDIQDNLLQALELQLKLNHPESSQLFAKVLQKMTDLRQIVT
Source text: Luciferase activities are presented as the fold activation achieved in compound-treated versus mock-treated cells. Similar results were obtained in triplicate in three independent experiments.
as §1

PPARδ = biological target: T3, PPARδ (Mus musculus, UniProt P35396); experiment: Cotransfection assay, PPRE3-TK-LUC reporter with CMX-PPARδ; type: cell-based; details: CV-1 cells; for activation of PPARδ (reporter expression), in words: 5 μM Wy 14,643, 30 μM linoleic acid or 30 μM LY-171883; for rank order of efficacy of activation, PPARδ: FIG. 4, 5 μM Wy 14,643, 30 μM linoleic acid, 30 μM LY-171883
T3 sequence (P35396 1-440): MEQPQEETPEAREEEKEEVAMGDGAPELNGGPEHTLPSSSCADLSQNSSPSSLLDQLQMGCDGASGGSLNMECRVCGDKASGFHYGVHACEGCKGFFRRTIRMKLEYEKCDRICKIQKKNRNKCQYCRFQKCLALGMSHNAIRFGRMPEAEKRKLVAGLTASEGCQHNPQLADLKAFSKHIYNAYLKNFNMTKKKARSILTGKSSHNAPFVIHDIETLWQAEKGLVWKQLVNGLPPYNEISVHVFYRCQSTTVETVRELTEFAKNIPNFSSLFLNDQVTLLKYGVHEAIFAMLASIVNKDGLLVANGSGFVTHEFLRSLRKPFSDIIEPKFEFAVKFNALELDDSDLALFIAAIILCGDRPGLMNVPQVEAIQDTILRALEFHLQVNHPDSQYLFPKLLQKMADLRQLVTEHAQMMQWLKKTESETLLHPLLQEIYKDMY
Source text: as §1

PPARalpha (Mus musculus) = experiment: cell_activity; details: activation by 5 uM Wy 14,643 in CV-1 cells

rank order of efficacy of activation, PPARα (PPARα)	rank order of efficacy of activation, PPARγ (PPARγ)	rank order of efficacy of activation, PPARδ (PPARδ)	Compound	activation of PPARγ (reporter expression), in words (PPARγ)	activation of PPARδ (reporter expression), in words (PPARδ)	activation of PPARα (reporter expression), in words (PPARα; 5 μM Wy 14,643, 30 μM linoleic acid or 30 μM LY-171883)	activity (PPARalpha (Mus musculus))
Wy 14,643>LY-171883>linoleic acid	LY 171883>linoleic acid>Wy 14,643	linoleic acid>LY-171883 and Wy 14,643	CCCc1c(OCCCCc2nnn[nH]2)ccc(C(C)=O)c1O [LY-171883]	significant activation; also recorded: most efficiently activated	strong activators		
Wy 14,643>LY-171883>linoleic acid	LY 171883>linoleic acid>Wy 14,643	linoleic acid>LY-171883 and Wy 14,643	CCCCC/C=C\C/C=C\CCCCCCCC(=O)O [linoleic acid]	no activation	strong activators; also recorded: most efficiently activated		
			PPRE3-TK-LUC reporter				> 100 fold

Compound	rank order of efficacy of activation, PPARα (PPARα)	rank order of efficacy of activation, PPARγ (PPARγ)	rank order of efficacy of activation, PPARδ (PPARδ)	activation of PPARγ (reporter expression), in words (PPARγ)	activation of PPARδ (reporter expression), in words (PPARδ)	activation of PPARα (reporter expression), in words (PPARα; 5 μM Wy 14,643, 30 μM linoleic acid or 30 μM LY-171883)	activity (PPARalpha (Mus musculus))
Cc1cccc(Nc2cc(Cl)nc(SCC(=O)O)n2)c1C [Wy 14,643]	Wy 14,643>LY-171883>linoleic acid	LY 171883>linoleic acid>Wy 14,643		no activation; also recorded: fail 30 to respond; also recorded: fails to activate		most efficiently activated	

Source: patent US5861274A, “Nucleic acids encoding peroxisome proliferator-activated receptor” (The Salk Institute for Biological Studies, priority 1995, dated 1999)
